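Method: 48-hour compound exposure of cells in 96-well plates, five concentrations, linear interpolation of endpoints. Abbreviation: GI50, concentration required for 50% inhibition of growth.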 Calls of active or inactive are those of the source. Rule as the data show it: active = GI50 up to about 1.1 µM and inactive = higher.

Test systems include IGROV-1; SF-268; TK-10; NCI-H23; COLO 205; HOP-92; NCI-H460; SR; SK-MEL-2; HT-29; HOP-62; NCI-H226; OVCAR-4; CAKI-1; SW-620; EKVX; T47D; A549; RXF 393; NCI/ADR-RES.
Common to all, as to assay: inhibition of tumour cell growth, NCI panel, 48 h

For the compound `COC(=O)C1=C(C(=O)OC)SC2(S1)C(C(=O)OC)=C(C(=O)OC)Sc1c2ss/c1=N\c1ccc(Cl)cc1`, the GI50 is 1140 nM (inactive) in the assay with IGROV-1; 1130 nM (inactive) with SF-268; 1400 nM (inactive) in the assay on TK-10; 1830 nM (inactive) with NCI-H23; 774 nM (active) in the assay on COLO 205; 638 nM (active) in the assay with HOP-92. For the same compound, the GI50 was 333 nM (active) in the assay with NCI-H460; 277 nM (active) in the assay with SR; 325 nM (active) with SK-MEL-2; 525 nM (active) with HT-29; 1670 nM (inactive) in the assay with HOP-62; 1790 nM (inactive) with NCI-H226. Besides, the GI50 in the assay with OVCAR-4 was 1180 nM (inactive); in the assay on CAKI-1, 733 nM (active); in the assay on SW-620, 425 nM (active); in the assay with EKVX, 1450 nM (inactive); in the assay with T47D, 1060 nM (active); in the assay on A549 it was 1560 nM (inactive). In addition, the GI50 in the assay on RXF 393 was 256 nM (active); with NCI/ADR-RES it was 1840 nM (inactive).
